Each structure is given as a SMILES string. Numbers after ± are expanded uncertainties.

For this data set the following is noted: Crystal.
On to `O=C(Oc1ccccc1)Oc1ccccc1` [diphenyl carbonate], for which the Normal melting temperature is 80.81 ± 1.2 °C.

In the case of `CCCCCCCCCCCCO` [dodecan-1-ol], the Normal melting temperature is 23.36 ± 0.62 °C.

Consider `COC(=O)OC` [dimethyl carbonate], for which the Normal melting temperature came to 5.01 ± 0.62 °C.

On to `Cc1ncc[nH]1` [2-methylimidazole], for which the Normal melting temperature was 146.23 ± 1.2 °C.

The values above are taken from the NIST ThermoML archive (doi:10.1021/je101199g).
